According to patent US8906866B2, “Antibiotic compositions for the treatment of gram negative infections” (priority 2010, dated 2014):

Key:
E. coli 1527 = assay: MIC against the primary screening panel (broth microdilution); format: cell-based, Escherichia coli; parameters: key: A: a MIC value measurement that is the same as that observed for polymyxin B; a MIC value measured that is lower than the comparable value observed for polymxin B; a MIC value measured that is higher than the comparable value observed for polymyxin B; conditions: relative to polymyxin B
Protocol: (§1) Antibacterial potency can be assessed by broth microdilution according to CLSI guidelines, plates can be incubated at 37° C., and aeration (rotation at 200 rpm) can be employed. In some assays, surfactant (Survanta, Abbott Laboratories) can be added to give a final concentration of 1, 10 and 40% in caMHB. Native polymyxin A, polymyxin B and the comparator compound of Formula II (polymyxin B decapeptide with an o-chlorophenyl urea tail) were included for comparison.

K. pneumoniae 933 = assay: as above; format: cell-based, Klebsiella pneumoniae; parameters: key: A: a MIC value measurement that is the same as that observed for polymyxin B; a MIC value measured that is lower than the comparable value observed for polymxin B; a MIC value measured that is higher than the comparable value observed for polymyxin B; conditions: relative to polymyxin B
Protocol: as §1

P. aeruginosa 44 [1] = assay: as above; format: cell-based, Pseudomonas aeruginosa; parameters: key: A: a MIC value measurement that is the same as that observed for polymyxin B; a MIC value measured that is lower than the comparable value observed for polymxin B; a MIC value measured that is higher than the comparable value observed for polymyxin B; conditions: relative to polymyxin B
Protocol: as §1

A. baumannii 1570 = assay: as above; format: cell-based, Acinetobacter baumannii; parameters: key: A: a MIC value measurement that is the same as that observed for polymyxin B; a MIC value measured that is lower than the comparable value observed for polymxin B; a MIC value measured that is higher than the comparable value observed for polymyxin B; conditions: relative to polymyxin B
Protocol: as §1

E. coli [2] = assay: MIC50/90 against small panels (n = 35); format: cell-based, Escherichia coli; parameters: key: A: a MIC value measurement that is the same as that observed for polymyxin B; a MIC value measured that is lower than the comparable value observed for polymxin B; a MIC value measured that is higher than the comparable value observed for polymyxin B; conditions: small panel n = 35, relative to polymyxin B
Protocol: as §1

K. pneumoniae = assay: MIC50/90 against small panels (n = 35); format: cell-based, Klebsiella pneumoniae; parameters: key: A: a MIC value measurement that is the same as that observed for polymyxin B; a MIC value measured that is lower than the comparable value observed for polymxin B; a MIC value measured that is higher than the comparable value observed for polymyxin B; conditions: small panel n = 35, relative to polymyxin B
Protocol: as §1

P. aeruginosa = assay: MIC50/90 against small panels (n = 35); format: cell-based, Pseudomonas aeruginosa; parameters: key: A: a MIC value measurement that is the same as that observed for polymyxin B; a MIC value measured that is lower than the comparable value observed for polymxin B; a MIC value measured that is higher than the comparable value observed for polymyxin B; conditions: small panel n = 35, relative to polymyxin B
Protocol: as §1

A. baumannii = assay: MIC50/90 against small panels (n = 35); format: cell-based, Acinetobacter baumannii; parameters: key: A: a MIC value measurement that is the same as that observed for polymyxin B; a MIC value measured that is lower than the comparable value observed for polymxin B; a MIC value measured that is higher than the comparable value observed for polymyxin B; conditions: small panel n = 35, relative to polymyxin B
Protocol: as §1

P. aeruginosa #44 [3] = assay: MICs for P. aeruginosa #44 in the presence of surfactant; format: cell-based, Pseudomonas aeruginosa; parameters: key: A: a MIC value measurement that is the same as that observed for polymyxin B; a MIC value measured that is lower than the comparable value observed for polymxin B; a MIC value measured that is higher than the comparable value observed for polymyxin B; conditions: relative to polymyxin B
Protocol: as §1

P. aeru = assay: MIC50 and MIC90, CLSI broth microdilution, panel of Gram negative strains; format: cell-based, Pseudomonas aeruginosa; parameters: key: A: a measured MIC value equal to that of polymyxin B; a measured MIC value less than the corresponding MIC value measured for polymyxin B; a measured MIC value greater than the corresponding MIC value measured for polymyxin B; conditions: relative to polymyxin B; some strains multi-drug resistant
Protocol: (§2) MIC testing can be performed according to Clinical and Laboratory Standards Institute (CLSI) M7-A7 (2006) broth microdilution methods. Unless otherwise indicated, MIC values are provided in units of micrograms per milliliter.
(§3) One day prior to testing, individual colonies were isolated by streaking onto rich, non-selective Tryptic Soy agar with 5% lysed sheeps blood (TSAB) with incubation at 35-37° C. for 18-24 hours.
(§4) Cultures were prepared by touching 3-5 colonies into 3 mL of cation-adjusted Mueller Hinton Broth (caMHB) in a 14-mL tube (caMHB was prepared and sterilized according to manufacturer's specifications).
(§5) OD600 of growing cultures was measured and adjusted to approximately 10^5 colony forming units per mL (CFU/mL) in caMHB for MIC inoculation (approximately OD600 0.001).
(§6) Diluted cultures were used to inoculate 50 μL per well in broth microdilution assays (final volume 100 μl per well; compounds were prepared in two-fold dilutions).
(§7) Plates were incubated 16-20 hours at 37° C., with shaking at 200 rpm.
(§8) OD600 was determined for all wells. Growth was defined as OD600>0.1. MICs were defined as the lowest concentration producing no visible turbidity (OD600<0.1).

E. coli [4] = assay: as above; format: cell-based, Escherichia coli; parameters: key: A: a measured MIC value equal to that of polymyxin B; a measured MIC value less than the corresponding MIC value measured for polymyxin B; a measured MIC value greater than the corresponding MIC value measured for polymyxin B; conditions: relative to polymyxin B; some strains multi-drug resistant
Protocol: as §2, §3, §4, §5, §6, §7, §8

K. pneu = assay: as above; format: cell-based, Klebsiella pneumoniae; parameters: key: A: a measured MIC value equal to that of polymyxin B; a measured MIC value less than the corresponding MIC value measured for polymyxin B; a measured MIC value greater than the corresponding MIC value measured for polymyxin B; conditions: relative to polymyxin B; some strains multi-drug resistant
Protocol: as §2, §3, §4, §5, §6, §7, §8

A. baum = assay: as above; format: cell-based, Acinetobacter baumannii; parameters: key: A: a measured MIC value equal to that of polymyxin B; a measured MIC value less than the corresponding MIC value measured for polymyxin B; a measured MIC value greater than the corresponding MIC value measured for polymyxin B; conditions: relative to polymyxin B; some strains multi-drug resistant
Protocol: as §2, §3, §4, §5, §6, §7, §8

P. aeruginosa #44 [5] = assay: MIC against P. aeruginosa #44 in polystyrene plate; format: cell-based, Pseudomonas aeruginosa; conditions: range of repeated tests
Protocol: P. aeruginosa #44 were grown in cation adjusted Mueller Hinton Broth (caMHB) (catalog#B12322; Fisher Scientific, Pittsburgh, Pa.) at 37° C. MIC testing was performed according to Clinical and Laboratory Standards Institute [CLSI, formerly National Committee for Clinical Laboratory Standards (NCCLS), Wayne, Pa.] guidelines for broth microdilution. […]

P. aeruginosa 44 [6] = assay: Neutropenic mouse lung infection model; format: in vivo
Protocol: Compound of Formula (Ia) was tested in a murine thigh model. For the thigh model, female CD-1 mice were rendered neutropenic by IP injection on days −4 and −1 with 150 and 100 mg/kg cyclophosphamide, respectively. On day 0 mice were infected with 1×10^7 colony-forming units (cfu) of A. baumannii 1570 in one thigh muscle, and then administered compound SC in a dose ranging from 2 to 12 mg/kg at 1 and 6 hours post-infection.
The mouse lung model was run in the same manner as the thigh infection model, except that mice were infected IN with 1×10^7 cfu of P. aeruginosa 44 on day 0. Doses administered in the lung study ranged from 8 to 20 mg/kg. The ED−3log10 was based on cfu determination from the lung tissue 24 hours post-infection.

[7] = Acute toxicity testing in rats; format: in vivo, Sprague-Dawley rat; conditions: 1 mg/kg i.v.
Protocol: One female Sprague-Dawley rat was administered a 1 mg/kg dose of the test Compound 5. Clinical observations were taken immediately following the administration of compound and at 0.5, 1, 2 and 4 hours post-dose.

[8] = system: Gram negative bacterial strains; assay: Potency and spectrum against a panel of Gram negative bacterial strains; format: cell-based
Text: The potency and spectrum of Compound 5 was studied using a panel of Gram negative bacterial strains.
as §2

With CC(C)C[C@H]1NC(=O)[C@H](CCN)NC(=O)[C@@H](NC(=O)[C@@H](CCN)NC(=O)[C@@H](NC(=O)[C@H](CCN)NC(=O)[C@H]2C[C@@H]2c2ccccc2)C(C)O)CCNC(=O)[C@H](C(C)O)NC(=O)[C@H](CCN)NC(=O)[C@H](CCN)NC(=O)[C@H](C(C)O)NC1=O (single isomer, unassigned) [Compound 5] as the molecule, how does the “MIC E. coli 1527” value (E. coli 1527) read?
Its value is “A”.

And the “MIC K. pneumoniae 933” value (K. pneumoniae 933)?
Its value is “C”.

What about the “MIC P. aeruginosa 44” value (P. aeruginosa 44 [1]) of the same molecule?
The value was “C”.

And the “MIC A. baumannii 1570” value (A. baumannii 1570)?
Its value is “C”.

And the “E. coli MIC50” value (E. coli [2])?
Its value is “C”.

What about the “E. coli MIC90” value (E. coli [2]) of the same molecule?
The value was “A”.

What about the “K. pneumoniae MIC50” value (K. pneumoniae) of the same molecule?
Its value is “C”.

What about the “K. pneumoniae MIC90” value (K. pneumoniae) of the same molecule?
The value was “C”.

What about the “P. aeruginosa MIC50” value (P. aeruginosa) of the same molecule?
Its value is “A”.

What about the “P. aeruginosa MIC90” value (P. aeruginosa) of the same molecule?
The value was “C”.

What about the “A. baumannii MIC50” value (A. baumannii) of the same molecule?
Its value is “C”.

What about the “A. baumannii MIC90” value (A. baumannii) of the same molecule?
Its value is “C”.

And the “MIC P. aeruginosa #44, 0% surfactant” value (P. aeruginosa #44 [3]; 0% surfactant)?
Its value is “C”.

What about the “MIC P. aeruginosa #44, 10% surfactant” value (P. aeruginosa #44 [3]; 10% surfactant) of the same molecule?
Its value is “B”.

And the “MIC P. aeruginosa #44, 40% surfactant” value (P. aeruginosa #44 [3]; 40% surfactant)?
The value was “B”.

And the “P. aeru MIC 50” value (P. aeru)?
Its value is “A”.

What about the “P. aeru MIC 90” value (P. aeru) of the same molecule?
The value was “C”.

What about the “E. coli MIC50” value (E. coli [4]) of the same molecule?
The value was “C”.

And the “E. coli MIC90” value (E. coli [4])?
Its value is “A”.

And the “K. pneu MIC 50” value (K. pneu)?
Its value is “C”.

And the “K. pneu MIC 90” value (K. pneu)?
The value was “C”.

And the “A. baum MIC 50” value (A. baum)?
The value was “C”.

What about the “A. baum MIC 90” value (A. baum) of the same molecule?
The value was “C”.

And the “MIC against P. aeruginosa #44 In polystyrene plate” value (P. aeruginosa #44 [5])?
Its value is 1-2 micrograms/ml.

What about the “Lungs cleared within one log10 of limit of detection” value (P. aeruginosa 44 [6]; 8 through 20 mg/kg dose levels) of the same molecule?
Its value is “Lungs cleared within one log10 of limit of detection”.

What about the “ED−3log10” value (P. aeruginosa 44 [6]; neutropenic mouse lung, P. aeruginosa 44, SC, BID×1 d, cfu 24 hours post-infection) of the same molecule?
The value was 6.35 mg/kg.

What about the “time by which rat had no clinical signs” value ([7]; 1 female Sprague-Dawley rat) of the same molecule?
Its value is ≤ 1 h.

What about the “Acute (anaphylactoid) observations” value ([7]; female Sprague-Dawley rat) of the same molecule?
Its value is “anaphylactoid response was observed”.

And the “activity against E. coli, K. pneumonia, P. Aeruginosa and A. baumanni isolates” value [8]?
Its value is “active”.

And the “activity against multi-drug resistant strains” value [8]?
The value was “active against multi-drug resistant strains”.
